{
  "source": "patent US20260151413A1",
  "about": "“ANTICANCER DRUG CONJUGATES” (Ariel Scientific Innovations Ltd., priority 2022, published 2026)",
  "key": {"Rec-1": {"test_system": "Rec-1", "experiment": "WST-1 proliferation assay, Rec-1", "assay_type": "cell-based, human", "conditions": "Homo sapiens, Rec1; WST-1, 48 hours of treatment", "procedure": "(§1) Albert Pinhasov (Ariel University, Ariel, Israel). […] Granta cells were kindly provided by Prof.\n(§2) Table 3 [resents the calculated IC50 values (μM) for each chimera in different hematological malignancies cell-lines. The proliferation rate was measured by WST-1 assay after 48 hours of treatment. The result shown for each concentration point represents the […]"}, "MUTZ5": {"test_system": "MUTZ5", "experiment": "WST-1 proliferation assay, MUTZ5", "assay_type": "cell-based, human", "conditions": "Homo sapiens; WST-1, 48 hours of treatment", "procedure": "as §1, §2"}, "JEKO-1": {"test_system": "JEKO-1", "experiment": "WST-1 proliferation assay, JEKO-1", "assay_type": "cell-based, human", "conditions": "Homo sapiens, JeKo-1; WST-1, 48 hours of treatment", "procedure": "as §1, §2"}, "HEL": {"test_system": "HEL", "experiment": "WST-1 proliferation assay, HEL", "assay_type": "cell-based, human", "conditions": "Homo sapiens, HEL; WST-1, 48 hours of treatment", "procedure": "as §1, §2"}, "GRANTA": {"test_system": "GRANTA", "experiment": "WST-1 proliferation assay, GRANTA", "assay_type": "cell-based", "conditions": "WST-1, 48 hours of treatment", "procedure": "as §1, §2"}, "DND41": {"test_system": "DND41", "experiment": "WST-1 proliferation assay, DND41", "assay_type": "cell-based, human", "conditions": "Homo sapiens, DND41; WST-1, 48 hours of treatment", "procedure": "as §1, §2"}, "[1]": {"test_system": "aggressive papillary thyroid cancer cells", "experiment": "Proliferation of aggressive papillary thyroid cancer cells", "assay_type": "cell-based", "conditions": "10 nM and 100 nM, with respect to DMSO control", "procedure": "Chimera 9 (also referred to herein as Doxorubizen) was evaluated in two different concentrations (10 nM and 100 nM) on aggressive papillary thyroid cancer and with respect to the parent anticancer drug Doxorubicin."}, "[2]": {"test_system": "Human primary anaplastic thyroid cancer (ATC) cells", "experiment": "Vitality/proliferation of primary anaplastic thyroid cancer cells", "assay_type": "cell-based", "conditions": "100 nM, 250 nM, 500 nM; 3, 5 and 7 days", "procedure": "Human primary anaplastic thyroid cancer (ATC) cells were treated with chimera 9 (100 nM, 250 nM, and 500 nM), or Doxorubicin (100 nM, 250 nM, and 500 nM), or with vehicle, for 3, 5, and 7 days."}, "[3]": {"test_system": "OCI-AML3, KG-1a, Granta, Jeko-1 and BV-173 cells", "experiment": "Mitochondrial depolarization (Muse Mitochondrial Kit)", "assay_type": "cell-based", "conditions": "50-250 nM depending on cell line, 48 hours, compared to the parental drug", "procedure": "Changes in mitochondrial potential and cellular plasma membrane permeabilization, were determined with the Muse® Mitochondrial Kit (Luminex, USA). Briefly, Cells were treated with DMSO or the relevant chimera for 48 hours. The cells were incubated with MitoPotential working solution for 20 minutes at 37° C. in 5% CO2. Then, 5 μL Muse® MitoPotential 7-ADD reagent were added and the cells were incubated for 5 minutes at room temperature. The percentage of four cell populations: live (mitopotential+/7−AAD−), depolarized live (mitopotential−/7−AAD−), dead (mitopotential+/7−AAD+), and depolarized dead (mitopotential−/7−AAD+) were measured using the Muse® Cell Analyzer (Luminex, USA).\n(§3) Chimera 9 was evaluated for its biological impact on mitochondrial function and cell death. To that end, the inventor treated the following cell lines OCI-AML3 (100 nM), KG-1a (100 nM), Granta (250 nM), Jeko-1 (50 nM) and BV-173 (50 nM) with doxorubicin or chimera 9."}, "[4]": {"test_system": "OCI-AML3, KG-1a, Granta, Jeko-1 and BV-173 cells", "experiment": "Apoptosis assay (Muse AnnexinV and Dead Cell kit)", "assay_type": "cell-based", "conditions": "50-250 nM depending on cell line, 48 hours, compared to the parental drug", "procedure": "Cells were analyzed using the multifunctional Muse®AnnexinV and Dead Cell kit (Luminex/Millipore, Austin, Texas, USA). Cells were treated with indicated concentrations of Doxorubizen, the corresponding parent drug, or with DMSO. After 48 hours of incubation cells were harvested, washed twice in PBS, and 2×10^5 cells were stained with 100 μl of Muse AnnexinV and Dead Cell Reagent. Samples were incubated for 20 min at room temperature in the dark. Cells were analyzed by the Muse®CellAnalyzer system (Millipore, Billerica, MA, USA), and the percentage of apoptosis was determined using Guava software (Luminex/Millipore, USA, version 3.3).\nas §3"}, "BV-173 cells": {"test_system": "BV-173 cells", "experiment": "DNA damage by dual staining of pH2A.X and pATM", "assay_type": "cell-based", "conditions": "50 nM, 3 hours, compared to the parental drug", "procedure": "BV-173 cells (2×10^5 cells/well) were treated with DMSO, Doxorubicin or Doxorubizen. After incubation for 3 hours, phosphorylation level of ATM and H2AX was measured by Muse cell analyzer using Muse Multi-Color DNA Damage Kit (Luminex Corporation, Part number: MCH200107) according to manufacturer's instructions. Phosphorylation levels were determined using Guava software (Luminex/Millipore, USA, version 3.3).\nBV-173 cells were exposed to 50 nM chimera 9 or the non-conjugated drug Doxorubicin, and DNA damage was analyzed after 3 hours by using dual staining of phospho-Histone H2A.X (Ser139) and phospho-ATM (Ser1981) antibodies."}, "[5]": {"test_system": "triple negative breast cancer (TNBC) MDA 231 cells", "conditions": "for weight maintenance, survival and tumor growth suppression compared with doxorubicin: ip administration", "procedure": "Five-week-old athymic Nude-Foxn 1nu male mice (ENVIGO Labs, Nes Ziona, Israel) were subcutaneously inoculated on the dorsal left side with […] (1×10^6 cell) into nu/nu mice, 0.2 mL per mouse) and tumors allowed to establish over time. When tumor volume reached 100 mm^3, Doxorubicin (Dox) and Doxorubizen (Chimera 9) were administered intraperitoneally (ip). Animals were removed from an experiment if either of the following conditions were fulfilled: reduction of 20% or more body weight; tumor volume>0.55 cm^3. The tumor dimensions were measured using a Vernier caliper and the volume was calculated according to the equation: Volume (mm^3) ¼ length×width×width×½ three times per week. The in vivo experiments were approved by the Animal Ethics Committee (Authorization number IL-179-06-19).\nChimera 9 was also evaluated for its effect on breast cancer model. For this evaluation, […] nude female (6-8 weeks) mice (groups 1, 2, two mice per group, groups 3, 4, 5 three mice per group) were inoculated with triple negative breast cancer (TNBC) MDA 231 cells. Group 1 was used as the control for tumor growth. After 10 days, mice were […] (ip) administered with Doxorubicin (groups 2 and 4) and Chimera 9 (Doxorubizen) (groups 3 and 5) in the following regime: ip administration of 2.5 mg/kg Doxorubicin once per week (group 2) and three sequential days per week (group 4); ip administration of 3.5 mg/kg chimera 9 once per week (group 3) and three sequential days per week (group 5). Overall experiment carried out for 5 weeks and 4 days, when the tumor volumes for all the groups were monitored. Tumors were then resected and measured."}, "[6]": {"test_system": "10 hematological cell-lines", "experiment": "In vitro cytotoxicity screening on the panel of hematological cell-lines (WST-1)", "quoted_text": "The above cells were cultured in RPMI medium (Gibco, Thermo Fisher Scientific Inc., USA). […] All media were supplemented with 10% heat-inactivated Fetal Bovine Serum (FBS, Biological industries, Israel), 2 mM glutamine (Biological industries, Israel) and 1% penicillin and streptomycin (Biological industries, Israel). Cells were cultured at 37° C. in a humidified incubator with 5% CO2.\nGrowth inhibition in hematological malignancies cell-lines was measured by tetrazolium WST-1 assay (Roche, Basel, Switzerland). Cells (1*10^4) were treated with various concentrations of the specific chimera or parental drug. After 48 h of incubation, 10 μl of WST-1 reagent was added to the plate and incubated for 1 h at 37° C., at which point the absorbance (450 nm) was measured in an ELISA plate reader (Synergy HTX multi-mode reader, Winooski, Vermont, USA).\nMUTZ5 and MHH-CALL4; B-cell Acute lymphocytic leukemia (B-cell ALL) model. DND41; T-ALL model. KG-1a and OCI-AML-3; Acute myeloid leukemia (AML) model and HEL; erythroleukemia model."}, "[7]": {"conditions": "Group 5: ip 3.5 mg/kg, three sequential days per week"}},
  "note": "“Also recorded” adds a separate entry of the source. Where two headings read alike, the source gives them in different places.",
  "data": [
    {"smiles": "COC(=O)N(C)/N=N/c1ccc(CNC2CC(OC3CC(O)(C(=O)CO)Cc4c(O)c5c(c(O)c43)C(=O)c3c(OC)cccc3C5=O)OC(C)C2O)cc1", "note": "(stereo not drawn) [Chimera 9, (E)-methyl-3-(4-(((3-hydroxy-2-methyl-6-((3,5,12-trihydroxy-3-(2-hydroxyacetyl)-10-methoxy-6,11-dioxo-1,2,3,4,6,11-hexahydrotetracen-1-yl)oxy)tetrahydro-2H-pyran-4-yl)amino)methyl)phenyl)-1-methyltriaz-2-ene-1-carboxylate]", "values": [
      {"measurement": "IC50", "setting": "Rec-1", "value": 520, "unit": "nM"},
      {"measurement": "IC50", "setting": "MUTZ5", "value": 520, "unit": "nM"},
      {"measurement": "IC50", "setting": "JEKO-1", "value": 850, "unit": "nM"},
      {"measurement": "IC50", "setting": "HEL", "value": 970, "unit": "nM"},
      {"measurement": "IC50", "setting": "GRANTA", "value": 2590, "unit": "nM"},
      {"measurement": "IC50", "setting": "DND41", "value": 640, "unit": "nM"},
      {"measurement": "proliferation of thyroid cancer cells", "setting": "[1]", "value": "reduce significantly the proliferation"},
      {"measurement": "vitality/proliferation of primary human ATC cells", "setting": "[2]", "value": "reduced the vitality/proliferation of primary human ATC cells significantly; also recorded: higher effect"},
      {"measurement": "mitochondrial membrane potential", "setting": "[3]", "value": "significantly collapsed mitochondrial membrane potential"},
      {"measurement": "rate of apoptosis", "setting": "[4]", "value": "substantial increase in the rate of apoptosis"},
      {"measurement": "DNA damage: co-activation of pH2A.X and pATM", "setting": "BV-173 cells", "value": "significant co-activation of pH2A.X and pATM"},
      {"measurement": "outcome compared to Group 2 (Doxorubicin once per week)", "setting": "[5]; Group 3: ip 3.5 mg/kg once per week", "value": "no statistical significance"},
      {"measurement": "body weight", "setting": "[5]; [7]", "value": "didn't lose weight"},
      {"measurement": "toxicity vs doxorubicin", "setting": "[5]; [7]", "value": "reduced toxicity"},
      {"measurement": "tumor volume", "setting": "[5]; [7]", "value": "even reduced"},
      {"measurement": "survival", "setting": "[5]; Group 5: ip 3.5 mg/kg, three sequential days per week, 3.5 mg/kg", "value": "full survival; also recorded: survived until the end of the experiment"},
      {"measurement": "weight maintenance, survival and tumor growth suppression compared with doxorubicin", "setting": "[5]", "value": "markedly superior"},
      {"measurement": "weight maintenance, survival and tumor growth suppression compared with doxorubicin", "setting": "[5]; listed as Doxorubizen", "value": "profoundly superior"},
      {"measurement": "cytotoxic effect", "setting": "[6]; 250 nM", "value": "exceptional cytotoxic effect"},
      {"measurement": "effect on proliferation rate across the examined cell-lines", "setting": "[6]; 10 hematological cell-lines, WST-1", "value": "inhibited the proliferation rate in all the examined cell-lines"},
      {"measurement": "cytotoxic effect compared to the parental non-conjugated drug", "setting": "[6]; chimera vs its parent drug", "value": "reduced proliferation rate of numerous cell-lines; also recorded: superior to Doxorubicin"}
    ]}
  ]
}
